Structures are written as SMILES.

What all share (type): in vivo, rat
In data set [1] the test system is rats with streptozotocin-induced diabetes. Nature of the data set: Blood pressure (tail-cuff plethysmography), heart rate, body weight, glucose and side-effects in streptozotocin-induced diabetic rats. How it is done: (§1) All experiments were conducted in accordance with guidelines for the care and use of laboratory animals. Diabetes was induced in rats by a single tail vein injection of streptozotocin (60 mg/kg b.wt.), without insulin treatment, as recently described in Horcher et al., “Renal endothelin system in diabetes: inhibition and endothelin-A antagonism.”, J. Cardiovasc. Pharmacol. 1998; 31: 492-495. Diabetes was confirmed in streptozotocin treated rats by determining serum glucose concentrations. Only those rats were included having plasma glucose concentrations of >15 mmol/l (hyperglycemic rats, diabetic rats). Three groups of rats were investigated with n 7 to 11 per group: • 1) non-diabetic rats control group; • 2) diabetic rats control group, vehicle treated; • 3) treated diabetic rats group: with test compound of formula I ((3S,2′R)-3-{1-[2′-(ethoxycarbonyl)-4′-phenylbutyl]-cyclopentane-1-carbonylamino}-2,3,4,5-tetrahydro-2-oxo-1H-1-benzazepine-1-acetic-acid), 30 mg/kg/day for 18 weeks.
The experiment performed according to the present invention over 18 weeks of treatment provided the following results which are detailed in Table I, and FIGS. 1 and 2. In the context of the present invention, the most important data to be considered are the mean blood pressure (BP; tail-cuff plethysmography), the protein and albumin excretion (mean values, standard deviations) in urine which was collected in metabolic cages over 24 h, and number (n) of animals in each group regarding non-diabetic controls, diabetic vehicle treated controls (=placebo) and test compound treated group.
(§2) At baseline, serum glucose and blood pressure were similar in both diabetic groups. Compared to vehicle, the test compound of formula I had no effect on these parameters during the treatment period. After 18 weeks treatment, urinary protein and albumin excretion were measured. Protein excretion in the vehicle-treated group was about 18 mg/24 h; in the group which had received the compound of formula I it was about 4.8 mg/24 h (p=0.03 versus vehicle). Albumin excretion in the vehicle-group was about 0.5 mg/24 h, and in the which had received the compound of formula I it was about 0.1 mg/24 h (p=0.04). […] From the experiments it can be concluded that test compound of formula I decreases protein and albumin excretion in diabetic rats independent of blood pressure. From the results it may be concluded that the compounds of formula I exert a primary effect on end-organ disease.

The test system is the same in data set [2]. Briefly: Glomerular filtration rate by endogenous creatinine clearance in streptozotocin-induced diabetic rats. The conditions noted are these: 30 mg/kg/day oral, after 18 weeks of treatment. How it is done:
as §1
Glomerular filtration rate was calculated by the endogeneous creatinine clearance. It was observed that administering a compound of formula I as defined above improved the overall glomerular filtration rate.

Data set [3] has the same test system. Briefly: Plasma concentrations of ET-1, bigET-1 and angiotensin-II in streptozotocin-induced diabetic rats. The conditions noted are these: 30 mg/kg/day oral, 18 weeks. How it is done:
as §1, §2

Setting [4] is: 30 mg/kg/day oral, after 18 weeks of treatment.
Where [5] appears, read: 30 mg/kg/day oral, during the treatment period.

As for `CCOC(=O)[C@H](CCc1ccccc1)CC1(C(=O)N[C@H]2CCc3ccccc3N(CC(=O)O)C2=O)CCCC1` [test compound of formula I, (3S,2′R)-3-{1-[2′-(ethoxycarbonyl)-4′-phenylbutyl]-cyclopentane-1-carbonylamino}-2,3,4,5-tetrahydro-2-oxo-1H-1-benzazepine-1-acetic-acid], in data set [1] (30 mg/kg/day oral with food, after 18 weeks of treatment, tail-cuff), the “Blood Pressure, mean value” is 129 mmHg. Also, the Side-effects entry in data set [1] (30 mg/kg/day oral, 18 weeks) was “No side-effects”. In data set [1] (setting [4]), the “Body Weight, mean value” came to 252.7 g; the “Glucose, final, mean value” came out at 560.33 mg/dL; the “Heart Rate, mean value” is 280 beats/min. In data set [1] (setting [5]), the “Effect on blood pressure compared to vehicle” value is “no effect” and the “Effect on serum glucose compared to vehicle” value was “no effect”. The “Glomerular Filtration Rate, final, mean value” in data set [2] was found to be 2.014 mL/min. In data set [3], the “Plasma concentration of ET-1 compared to vehicle” value is on record as “unchanged”, the “Plasma concentration of angiotensin-II compared to vehicle” value is “unchanged” and the “Plasma concentration of bigET-1 compared to vehicle” value is reported as “unchanged”.

The values are drawn from US20050137183A1, “Method and pharmaceutical compositions for treating or inhibiting renal dysfunctions, diseases or disorders, particularly in diabetic patients” (Solvay Pharmaceuticals GmbH, priority 2003, published 2005).
